Activity calls are given as the source filed them. No cut-off for these calls is given here.
Tests used:
Cell membrane [1] = assay: Induction of inner membrane permeabilization in Escherichia coli ML-35 ATCC 43587 at 1 to 4 times MIC by ONPG based assay
[2] = Acute toxicity in ip dosed Kunming mouse assessed as lethal dose; assay type: organism-based; conditions: in vivo
Escherichia coli [3] = assay: Antimicrobial activity against Escherichia coli ATCC 25922 assessed as adherence to cell membrane measured after 30 mins by SEM analysis; assay type: functional, organism-based
Staphylococcus aureus [4] = assay: Antimicrobial activity against Staphylococcus aureus ATCC 25923 assessed as fold change in MICincubated for 18 hrs in presence of 150 mM NaCl by CLSI protocol based broth microdilution method relative to control; assay type: functional
Staphylococcus aureus [5] = assay: Antimicrobial activity against Staphylococcus aureus ATCC 25923 assessed as fold change in MIC incubated for 18 hrs in presence of 1 mM MgCl2 by CLSI protocol based broth microdilution method relative to control; assay type: functional
Escherichia coli [6] = assay: Antimicrobial activity against Escherichia coli ATCC 25922 assessed as fold change in MIC incubated for 18 hrs in presence of 4.5 mM KCl by CLSI protocol based broth microdilution method relative to control; assay type: functional
Bacillus subtilis = assay: Antimicrobial activity against Bacillus subtilis ATCC 23857 assessed as reduction of bacterial growth incubated for 18 hrs by CLSI protocol based broth microdilution method; assay type: functional
Staphylococcus aureus [7] = assay: Antibacterial activity against Staphylococcus aureus ATCC 25923 infected BALB/c mouse assessed as reduction in pulmonary inflammatory cell infiltration at 5 to 10 mg/kg, ip measured after 24 hrs by hematoxylin and eosin staining based assay; assay type: functional, organism-based; conditions: dose 5-10 mg/kg
Escherichia coli [8] = assay: Antimicrobial activity against Escherichia coli ATCC 25922 assessed as cell membrane breakage measured after 30 mins by SEM analysis; assay type: functional, organism-based
Escherichia coli [9] = assay: Antimicrobial activity against Escherichia coli ATCC 25922 assessed as fold change in MIC incubated for 18 hrs in presence of 1 mM MgCl2 by CLSI protocol based broth microdilution method relative to control; assay type: functional
Staphylococcus aureus [10] = assay: Antimicrobial activity against Staphylococcus aureus ATCC 25923 assessed as assessed as fold change in MIC incubated for 18 hrs in presence of 4 uM FeCl3 by CLSI protocol based broth microdilution method relative to control; assay type: functional
Staphylococcus aureus [11] = assay: Antibacterial activity against Staphylococcus aureus ATCC 25923 infected in BALB/c mouse assessed as reduction in bacterial load in lung at 5 to 10 mg/kg, ip measured after 4 to 12 hrs (reference value: 5.6 x 10^6 CFU/g); assay type: functional; conditions: dose 5-10 mg/kg, time 4-12 hrs
Cell membrane [12] = assay: Induction of cytoplasmic membrane depolarization in Staphylococcus aureus ATCC 25923 assessed as increase in fluorescence intensity at 1 to 4 times MIC measured after 1 min by DiSC3-5 dye based fluorescence method; assay type: subcellular; conditions: DDE = dose-dependent effect
Staphylococcus aureus [13] = assay: Antimicrobial activity against Staphylococcus aureus ATCC 25923 assessed as disruption of biofilm formation measured after 2 hrs by SEM analysis; assay type: functional, organism-based
Escherichia coli [14] = assay: Antimicrobial activity against Escherichia coli ATCC 25922 assessed as reduction of bacterial growth incubated for 18 hrs by CLSI protocol based broth microdilution method; assay type: functional
Klebsiella pneumoniae = assay: Antimicrobial activity against Klebsiella pneumoniae ATCC 700603 assessed as reduction of bacterial growth incubated for 18 hrs by CLSI protocol based broth microdilution method; assay type: functional
Escherichia coli [15] = assay: Antimicrobial activity against rifampicin-resistant Escherichia coli ATCC 25922; assay type: functional
Staphylococcus aureus [16] = assay: Antimicrobial activity against Staphylococcus aureus ATCC 25923 assessed as reduction of bacterial growth incubated for 18 hrs by CLSI protocol based broth microdilution method; assay type: functional
Escherichia coli [17] = assay: Synergistic antibacterial activity against Escherichia coli ATCC 25922 assessed as fractional inhibitory concentration index incubated for 18 hrs in presence of rifampicin by checker board assay; assay type: functional
Staphylococcus aureus [18] = assay: Synergistic antibacterial activity against Staphylococcus aureus ATCC 25923 assessed as fractional inhibitory concentration index incubated for 18 hrs in presence of kanamycin by checker board assay; assay type: functional
[19] = Stability in mouse serum assessed as half life at 10 mM measured upto 360 mins by RP-HPLC analysis; assay type: ADME, cell-free
Staphylococcus aureus [20] = assay: Bactericidal activity against Staphylococcus aureus ATCC 25923 assessed as time required to kill bacteria at 2 times MIC by time-killing assay; assay type: functional
Escherichia coli [21] = assay: Synergistic antibacterial activity against Escherichia coli ATCC 25922 assessed as fractional inhibitory concentration index incubated for 18 hrs in presence of polymyxin B by checker board assay; assay type: functional
[22] = tested on: Staphylococcus epidermidis; assay: Antimicrobial activity against Staphylococcus epidermidis ATCC 12228 assessed as reduction of bacterial growth incubated for 18 hrs by CLSI protocol based broth microdilution method; assay type: functional
Staphylococcus aureus [23] = assay: Antimicrobial activity against Staphylococcus aureus ATCC 25923 assessed as breakage of cell membrane measured after 2 hrs by SEM analysis; assay type: functional, organism-based
Cell membrane [24] = assay: Induction of outer membrane permeabilization in Pseudomonas aeruginosa ATCC 27853 by NPN fluorescent dye based assay; assay type: subcellular; conditions: DDE = dose-dependent effect
Pseudomonas aeruginosa = assay: Antimicrobial activity against Pseudomonas aeruginosa ATCC 27853 assessed as reduction of bacterial growth incubated for 18 hrs by CLSI protocol based broth microdilution method; assay type: functional
Escherichia coli [25] = assay: Antimicrobial activity against Escherichia coli ATCC 25922 assessed as reduction of bacterial growth at 2 times MIC incubated for 18 hrs in presence of chymotrypsin by CLSI protocol based broth microdilution method; assay type: functional, organism-based
Staphylococcus aureus [26] = assay: Antimicrobial activity against Staphylococcus aureus ATCC 25923 assessed as fold change in MIC incubated for 18 hrs in presence of 10% serum by CLSI protocol based broth microdilution method relative to control; assay type: functional
[27] = Cytotoxicity against human HK-2 cells assessed as reduction in cell viability incubated for 1 hr by resazurin based microplate reader method; assay type: toxicity
Escherichia coli [28] = assay: Antimicrobial activity against Escherichia coli ATCC 25922 assessed as morphological changes measured after 4 hrs by SEM analysis; assay type: functional, organism-based
Escherichia coli [29] = assay: Antimicrobial activity against Escherichia coli ATCC 25922 assessed as fold change in MIC incubated for 18 hrs in presence of 10% serum by CLSI protocol based broth microdilution method relative to control; assay type: functional
Escherichia coli [30] = assay: Synergistic antibacterial activity against meropenem-resistant Escherichia coli ATCC 25922 assessed as fractional inhibitory concentration index incubated for 18 hrs in presence of meropenem by checker board assay; assay type: functional
Enterococcus faecalis = assay: Antimicrobial activity against Enterococcus faecalis ATCC 29212 assessed as reduction of bacterial growth incubated for 18 hrs by CLSI protocol based broth microdilution method; assay type: functional
[31] = Stability in mouse serum assessed as drug degradation by measuring retention time at 10 mM measured upto 360 mins by RP-HPLC analysis; assay type: ADME, cell-free; conditions: 6 h, 10000 µM
Staphylococcus aureus [32] = assay: Synergistic antibacterial activity against kanamycin-resisitant Staphylococcus aureus ATCC 25923 assessed as fractional inhibitory concentration index incubated for 18 hrs in presence of kanamycin by checker board assay; assay type: functional
Staphylococcus aureus [33] = assay: Antibacterial activity against Staphylococcus aureus ATCC 25923 infected BALB/c mouse assessed as reduction in hepatic inflammatory cell infiltration at 5 to 10 mg/kg, ip measured after 24 hrs by hematoxylin and eosin staining based assay; assay type: functional, organism-based; conditions: dose 5-10 mg/kg
Staphylococcus aureus [34] = assay: Antimicrobial activity against kanamycin-resistant Staphylococcus aureus ATCC 25923; assay type: functional

Substance	Activity (Cell membrane [1])	LD50 [2]	Activity (Escherichia coli [3])	fold change (FC) (Staphylococcus aureus [4])	fold change (FC) (Staphylococcus aureus [5])	fold change (FC) (Escherichia coli [6])	MIC (Bacillus subtilis)	Activity (Staphylococcus aureus [7])	Activity (Escherichia coli [8])	fold change (FC) (Escherichia coli [9])	fold change (FC) (Staphylococcus aureus [10])	Activity (Staphylococcus aureus [11])	Activity (Cell membrane [12])	Activity (Staphylococcus aureus [13])	MIC (Escherichia coli [14])	MIC (Klebsiella pneumoniae)	MIC (Escherichia coli [15])	MIC (Staphylococcus aureus [16])	fractional inhibitory concentration index (FICI) (Escherichia coli [17])	fractional inhibitory concentration index (FICI) (Staphylococcus aureus [18])	also measured
H-RIRIRRRRFRIRIR-NH2	Active	77.1 mg/kg	Active	2	2	2	2 µM	Active	Active	1	1	0 CFU/g	Dde	Active	4 µM	8 µM	4 µM	4 µM	1	0.5625	half-life at 10000 µM [19]: 7.7 h; Time (Staphylococcus aureus [20]): 30 min; fractional inhibitory concentration index (FICI) (Escherichia coli [21]): 0.5; MIC [22]: 4 µM; Activity (Staphylococcus aureus [23]): Active; Activity (Cell membrane [24]): Dde; MIC (Pseudomonas aeruginosa): 4 µM; Activity (Escherichia coli [25]): Active; fold change (FC) (Staphylococcus aureus [26]): 2; CC50 at 1 h [27]: 65.2 µM; Activity (Escherichia coli [28]): Active; fold change (FC) (Escherichia coli [29]): 1; fractional inhibitory concentration index (FICI) (Escherichia coli [30]): 0.75; MIC (Enterococcus faecalis): 8 µM; Retention_time [31]: 10.623 min; fractional inhibitory concentration index (FICI) (Staphylococcus aureus [32]): 0.5625; Activity (Staphylococcus aureus [33]): Active; MIC (Staphylococcus aureus [34]): 4 µM
H-KWKWKRRRFKWKWK-NH2	Active	62.2 mg/kg	Active	2	1	1	4 µM	Active	Active	1	1	0 CFU/g	Dde	Active	8 µM	16 µM	4 µM	8 µM	0.625	0.5	half-life at 10000 µM [19]: 2.68 h; Time (Staphylococcus aureus [20]): 90 min; fractional inhibitory concentration index (FICI) (Escherichia coli [21]): 0.375; MIC [22]: 4 µM; Activity (Staphylococcus aureus [23]): Active; Activity (Cell membrane [24]): Dde; MIC (Pseudomonas aeruginosa): 4 µM; Activity (Escherichia coli [25]): Active; fold change (FC) (Staphylococcus aureus [26]): 2; CC50 at 1 h [27]: > 128 µM; Activity (Escherichia coli [28]): Active; fold change (FC) (Escherichia coli [29]): 1; fractional inhibitory concentration index (FICI) (Escherichia coli [30]): 1.25; MIC (Enterococcus faecalis): 16 µM; Retention_time [31]: 11.505 min; fractional inhibitory concentration index (FICI) (Staphylococcus aureus [32]): 0.5; Activity (Staphylococcus aureus [33]): Active; MIC (Staphylococcus aureus [34]): 4 µM

Source: ChEMBL document CHEMBL5154808, “Novel β-Hairpin Antimicrobial Peptides Containing the β-Turn Sequence of -RRRF- Having High Cell Selectivity and Low Incidence of Drug Resistance” (J Med Chem, 2022)
